What was measured:
[1] = test system: normal rats; assay: Cardiorenal actions after intravenous bolus in anesthetized normal rats; type: in vivo, Wistar rats; settings: for MAP mean arterial pressure / HR heart rate / RAP right atrial pressure / UKV urine potassium excretion / UNaV urine sodium excretion / UV urine volume / UcGMPV urine cGMP volume / PcGMP plasma cGMP: mean ± SEM; for MAP mean arterial pressure: n = 4
Protocol: (§1) The results obtained are expressed as the means ±SEM. In organ chamber studies, n equals the number of dogs from which rings were taken. Rings with and without endothelium were studied in parallel, and Student's t-test for unpaired observations was used to determine statistical significance among the responses of rings with and without endothelium and between responses of arteries and veins. In rat studies, the data were analyzed using ANOVA for repeated measures followed by Fisher's least significant difference test when appropriate within the group. Data between groups were analyzed by Student's unpaired t-test. Statistical significance was determined at p<0.05.
Experiments were conducted in accordance with the Animal Welfare Act. Wistar rats and spontaneously hypertensive rats (SHR) (400 g; Harlan Sprague-Dawley, Indianapolis, Ind.) were anesthetized with Inactin (100 mg/kg; intraperitoneal; BYK Gulden, Konstanz, Germany). The body temperature was maintained between 36° and 38° C. by a heating pad. Tracheostomy was performed; however, the animals were not artificially ventilated. Polyethylene catheters (PE-50; Becton Dickinson Co., Parsippany, N.J.) were placed in the left Jugular vein for infusions of saline and drugs, in the right jugular vein to right atrium to monitor right atrial pressure, and in the carotid artery for the collection of blood samples and to monitor mean arterial pressure. A PE-90 catheter was placed in the bladder for urine collection.
Experiments were conducted in three groups in normal rats: ANP group (n=4), CNP group (n=4), and VNP group (n=4). VNP also was studied in SHR rats (n=4). Intravenous infusions of saline solution (0.9% NaCl) were performed (1 ml/100 gm body weight/hr) through the left jugular vein catheter. After completion of surgery, rats were allowed to stabilize for 30 minutes. In each group, a 15-min baseline period followed. After the baseline period, saline solution (0.9% NaCl) was administered in a bolus fashion (0.1 ml) and was followed by a 15-min period. After the saline period, the peptide (ANP, CNP or VNP) was administered in a bolus fashion (0.1 ml) at 5 μg/kg which was followed by a 15-min period. This was followed by a second bolus (0.1 ml) at 50 μg/kg and a 15-min period. After a 30-min washout, a 15-min recovery period followed. During each experimental period, mean arterial pressure (MAP), heart rate (HR), and right atrial pressure (RAP) were measured. At the midpoint of baseline, second bolus fashion (50 μg/kg) and recovery periods, blood was sampled for plasma cGMP. At the end of each period, urine was measured for volume (UV), and samples were stored for electrolytes and cGMP analysis.
Blood for plasma cGMP analysis was collected into EDTA tubes, immediately placed on ice, and centrifuged at […] at 4° C. Plasma was separated and stored at -20° C. until assay. Urine for cGMP determination was heated to >90° C. before storage. Plasma and urine cGMP were determined by a specific RIA as previously described by A. L. Steiner et al., J. Hypertension, 5 (Suppl. 5) 551-553 (1987).

[2] = test system: isolated normal canine blood vessels; assay: Organ chamber isometric force: relaxation of phenylephrine-contracted vessel rings; set-up: species or system dog; settings: for relaxation: maximal dose (3×10^-6 M); for maximal response, percent change in tension from a contraction to phenylephrine: peptide 3 × 10^-6 M, mean ± SEM
Protocol: as §1
Rings cut from femoral, saphenous, renal and pulmonary arteries and veins obtained from random source mongrel dogs (anesthetized with 30 mg/kg pentobarbital sodium intravenously) were suspended for the measurement of isometric force in organ chambers filled with aerated (95% O2 and 5% CO2) modified Krebs-Ringer bicarbonate solution (composition in mM: 118.3 NaCl, 4.7 KCl, 2.5 CaCl2, 1.2 MgSO4, 1.2 KH2 PO4, 25.0 NaHCO3, 0.026 calcium sodium EDTA, and 11.1 dextrose; control solution) at 37° C. In one-half rings, the endothelium was removed by gently rubbing the intimal surface with a cotton swab wetted with control solution. Each ring was stretched to the optimal point on its length-tension curve as determined by the tension developed to norepinephrine (3×10^-7 M) at each level of stretch. The presence of endothelium was determined at the beginning of the experiment by a relaxation to acetylcholine (10^-6 M) during a contraction to norepinephrine at optimal length. The maximal tension of each ring was determined by norepinephrine (10^-4 M). To study responses to ANP, CNP and VNP, the rings were contracted with phenylephrine (10^-6 M). These contractions averaged 30-40% of the maximal contraction to norepinephrine. The peptides were added cumulatively once the contraction had stabilized.
The following commercially available drugs were used: acetylcholine chloride (Sigma Chemical, St. Louis, Mo.), human ANP and human CNP (Peninsula Laboratories, Belmont, Calif.), L-norepinephrine bitartrate (Sigma), phenylephrine bitartrate (Sigma). All drugs were dissolved in distilled water immediately prior to study, and the concentrations are reported as the final molar concentration (M) in the organ chamber.

[3] = normal rats, high dose (50 μg/kg) bolus

**Q.** How did the “natriuretic action (in words)” value ([1]; in vivo, rat) turn out when `CC[C@H](C)[C@@H]1NC(=O)[C@H](CCCNC(=N)N)NC(=O)[C@H](CC(=O)O)NC(=O)[C@H](CC(C)C)NC(=O)[C@H](CCCCN)NC(=O)[C@H](CC(C)C)NC(=O)CNC(=O)[C@H](Cc2ccccc2)NC(=O)[C@@H](NC(=O)CNC(=O)[C@H](CCCCN)NC(=O)[C@H](CO)NC(=O)[C@H](CC(C)C)NC(=O)CN)CSSC[C@@H](C(=O)O)NC(=O)CNC(=O)[C@H](CC(C)C)NC(=O)CNC(=O)[C@H](CO)NC(=O)[C@H](CCSC)NC(=O)[C@H](CO)NC(=O)CNC1=O` [CNP, C-type natriuretic peptide] was run?
**A.** Its value is “modest but significant natriuretic actions”.

**Q.** And the “change in MAP and RAP (in words)” value [1, 3]?
**A.** The value was “significant decrease”.

**Q.** What about the “change in urine flow, sodium excretion, plasma cGMP and urinary cGMP volume (in words)” value [1, 3] of the same compound?
**A.** The value was “increased”.

**Q.** What about the “MAP mean arterial pressure” value ([1]; normal rats, iv bolus 5 μg/kg, 15-min period) of the same compound?
**A.** Its value is 100 ± 12 mmHg.

**Q.** And the HR heart rate ([1]; normal rats, iv bolus 5 μg/kg)?
**A.** Its HR heart rate is 363 ± 19 beats/min.

**Q.** What about the “RAP right atrial pressure” value ([1]; normal rats, iv bolus 5 μg/kg) of the same compound?
**A.** The value was 0 ± 1.5 mmHg.

**Q.** And the “UKV urine potassium excretion” value ([1]; normal rats, iv bolus 5 μg/kg)?
**A.** The value was 5.1 ± 1.6 µmol/min.

**Q.** And the “UNaV urine sodium excretion” value ([1]; normal rats, iv bolus 5 μg/kg)?
**A.** The value was 4.1 ± 1.4 µmol/min.

**Q.** And the UV urine volume ([1]; normal rats, iv bolus 5 μg/kg)?
**A.** Its UV urine volume is 27.6 ± 2.0 µL/min.

**Q.** And the “UcGMPV urine cGMP volume” value ([1]; normal rats, iv bolus 5 μg/kg)?
**A.** The value was 97 ± 32 pmol/min.

**Q.** What about the HR heart rate ([1]; normal rats, iv bolus 50 μg/kg) of the same compound?
**A.** Its HR heart rate is 365 ± 19 beats/min.

**Q.** What about the “PcGMP plasma cGMP” value ([1]; normal rats, iv bolus 50 μg/kg) of the same compound?
**A.** The value was 19.4 ± 2.7 pmol/mL.

**Q.** What about the “RAP right atrial pressure” value ([1]; normal rats, iv bolus 50 μg/kg) of the same compound?
**A.** The value was -2.3 ± 0.6 mmHg.

**Q.** And the “UKV urine potassium excretion” value ([1]; normal rats, iv bolus 50 μg/kg)?
**A.** Its value is 7.6 ± 2.5 µmol/min.

**Q.** What about the “UNaV urine sodium excretion” value ([1]; normal rats, iv bolus 50 μg/kg) of the same compound?
**A.** The value was 12.1 ± 3.2 µmol/min.

**Q.** And the UV urine volume ([1]; normal rats, iv bolus 50 μg/kg)?
**A.** The UV urine volume was 66.4 ± 7.4 µL/min.

**Q.** And the “UcGMPV urine cGMP volume” value ([1]; normal rats, iv bolus 50 μg/kg)?
**A.** Its value is 323 ± 81 pmol/min.

**Q.** And the “MAP mean arterial pressure” value ([1]; normal rats, recovery period after 30-min washout)?
**A.** The value was 104 ± 11 mmHg.

**Q.** And the HR heart rate ([1]; normal rats, recovery period)?
**A.** Its HR heart rate is 363 ± 16 beats/min.

**Q.** And the “PcGMP plasma cGMP” value ([1]; normal rats, recovery period)?
**A.** The value was 3.6 ± 0.3 pmol/mL.

**Q.** What about the “RAP right atrial pressure” value ([1]; normal rats, recovery period) of the same compound?
**A.** The value was -0.1 ± 0.9 mmHg.

**Q.** And the “UKV urine potassium excretion” value ([1]; normal rats, recovery period)?
**A.** Its value is 2.4 ± 1.1 µmol/min.

**Q.** And the “UNaV urine sodium excretion” value ([1]; normal rats, recovery period)?
**A.** Its value is 2.9 ± 0.3 µmol/min.

**Q.** And the UV urine volume ([1]; normal rats, recovery period)?
**A.** The UV urine volume was 21.2 ± 6.3 µL/min.

**Q.** What about the “UcGMPV urine cGMP volume” value ([1]; normal rats, recovery period) of the same compound?
**A.** The value was 70 ± 39 pmol/min.

**Q.** What about the “MAP mean arterial pressure” value ([1]; normal rats, second iv bolus 50 μg/kg, 15-min period) of the same compound?
**A.** The value was 87 ± 9 mmHg.

**Q.** And the relaxation ([2]; femoral and saphenous arteries)?
**A.** The relaxation was “no effects”.

**Q.** What about the “maximal response, percent change in tension from a contraction to phenylephrine” value (shortened to “maximal response, percent change”) ([2]; femoral artery, with endothelium, phenylephrine 10^-6 M) of the same compound?
**A.** The value was 4 ± 3%.

**Q.** What about the “maximal response, percent change” value ([2]; femoral artery, without endothelium) of the same compound?
**A.** Its value is 10 ± 6%.

**Q.** And the “maximal response, percent change” value ([2]; femoral vein, with endothelium)?
**A.** The value was 37 ± 8%.

**Q.** And the “maximal response, percent change” value ([2]; femoral vein, without endothelium)?
**A.** The value was 73 ± 8%.

**Q.** And the relaxation ([2]; femoral veins)?
**A.** Its relaxation is 90%.

**Q.** What about the “maximal response, percent change” value ([2]; pulmonary artery, with endothelium) of the same compound?
**A.** The value was 12 ± 3%.

**Q.** And the “maximal response, percent change” value ([2]; pulmonary artery, without endothelium)?
**A.** Its value is 33 ± 5%.

**Q.** And the “maximal response, percent change” value ([2]; pulmonary vein, with endothelium)?
**A.** Its value is 31 ± 6%.

**Q.** And the “maximal response, percent change” value ([2]; pulmonary vein, without endothelium)?
**A.** Its value is 66 ± 4%.

**Q.** And the “maximal response, percent change” value ([2]; renal artery, with endothelium)?
**A.** The value was 8 ± 2%.

**Q.** And the “maximal response, percent change” value ([2]; renal artery, without endothelium)?
**A.** The value was 8 ± 2%.

**Q.** What about the “maximal response, percent change” value ([2]; renal vein, with endothelium) of the same compound?
**A.** The value was 43 ± 4%.

**Q.** And the “maximal response, percent change” value ([2]; renal vein, without endothelium)?
**A.** Its value is 71 ± 5%.

**Q.** What about the “maximal response, percent change” value ([2]; saphenous artery, with endothelium) of the same compound?
**A.** Its value is 11 ± 7%.

**Q.** And the “maximal response, percent change” value ([2]; saphenous artery, without endothelium)?
**A.** The value was 14 ± 8%.

**Q.** What about the “maximal response, percent change” value ([2]; saphenous vein, with endothelium) of the same compound?
**A.** Its value is 16 ± 1%.

**Q.** What about the “maximal response, percent change” value ([2]; saphenous vein, without endothelium) of the same compound?
**A.** Its value is 43 ± 10%.

**Q.** And the relaxation ([2]; saphenous veins)?
**A.** Its relaxation is 40%.

**Q.** And the “relaxation, % of the contraction to phenylephrine” value ([2]; systemic arteries (femoral, saphenous and renal))?
**A.** Its value is “less than 30%”.

Source: patent US5583108A, “Vasonatrin peptide and analogs thereof” (Mayo Foundation for Medical Education and Research, priority 1994, dated 1996)
